Experimental data from patent publication US20080004272A1, “Compositions and methods for modulating gated ion channels” (PainCeptor Pharma Corporation, priority 2006, published 2008).
pIC50: −log10 of the molar value.

Target: T1, ASIC1a (Homo sapiens, UniProt P78348)
T1 sequence (P78348 1-528): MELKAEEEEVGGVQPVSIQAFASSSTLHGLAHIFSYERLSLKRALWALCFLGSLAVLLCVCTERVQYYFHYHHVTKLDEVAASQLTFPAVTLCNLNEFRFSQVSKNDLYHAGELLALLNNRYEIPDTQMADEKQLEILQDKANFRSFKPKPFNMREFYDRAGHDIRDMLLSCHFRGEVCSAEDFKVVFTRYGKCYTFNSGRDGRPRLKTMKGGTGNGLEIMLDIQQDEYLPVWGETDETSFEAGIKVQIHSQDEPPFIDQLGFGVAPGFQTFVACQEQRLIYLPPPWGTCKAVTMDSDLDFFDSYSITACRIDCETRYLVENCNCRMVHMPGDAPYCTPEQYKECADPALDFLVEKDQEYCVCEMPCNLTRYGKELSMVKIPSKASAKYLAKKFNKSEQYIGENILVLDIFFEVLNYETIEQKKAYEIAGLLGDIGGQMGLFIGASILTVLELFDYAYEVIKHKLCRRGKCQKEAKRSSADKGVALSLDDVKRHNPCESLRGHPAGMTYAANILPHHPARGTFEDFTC
Experiment: Calcium imaging of MES-induced calcium response (FLIPR)
Assay type: cell-based
Set-up: host or cells: HEK293
Conditions: ASIC1a expressing HEK293 cells, MES-induced calcium response; read-out: IC50 (FLIPR)
Protocol: […] Confluency of cells should be 80-90% on day of plating. Cells are rinsed with 10 ml of PBS and cells are re-suspended by addition of culture medium and trituration with a 25 ml pipette.
The cells are seeded at a density of approximately 1×10^6 cells/ml (100 μl/well) in black-walled, clear bottom, 96-well plates pre-treated with 10 mg/l poly-D-lysin (75 μl/well for ≧30 min). Plated cells are allowed to proliferate for 24 h before loading with dye.
Fluo-4/AM (1 mg, Molecular Probes) is dissolved in 912 μl DMSO. The Fluo-4/AM stock solution (1 mM) is diluted with culture medium to a final concentration of 2 μM (loading solution).
The culture medium is aspirated from the wells, and 50 μl of the Fluo-4/AM loading solution is added to each well. The cells are incubated at 37° C. for 30 min.
Following the second wash, 100 μl modified Assay Buffer is added to each well and the fluorescence is measured in FLIPR™ or FlexStation™ (Molecular Devices, USA), or any other suitable equipment known to the skilled in the art.
Temperature: Room temperature (20-22° C.)
First addition: 50 μl test solution at a rate of 30 μl/sec and a starting height of […]
Second addition: 50 μl MES solution (20 mM, 5 mM final concentration) at a rate of 35 μl/sec and a starting height of 150 μl.
Reading intervals: pre-incubation−10 sec×7 and 3 sec×3 antagonist phase−3 sec×7 and 10 sec×12
Addition plates (compound test plate and MES plate) are placed on the right and left positions in the FLIPR tray, respectively. Cell plates are placed in the middle position and the ASIC1a program is effectuated. FLIPR will then take the appropriate measurements in accordance with the interval settings above. Fluorescence obtained after stimulation is corrected for the mean basal fluorescence (in modified Assay Buffer).
The MES-induced peak calcium response, in the presence of test substance, is expressed relatively to the MES response alone. Test substances that block the MES-induced calcium response are re-tested in triplicates.

| pIC50 | SMILES |
| --- | --- |
| < 4.15 | CN1CCc2c(-c3ccccc3)cc3c(c2C1)NC(=O)/C3=N/OC1O[C@H](CO)[C@@H](O)[C@H](O)[C@H]1O (stereo partly drawn) [Compound 59] |
| < 4.15 | CCOC(=O)N1CCc2c(Br)ccc(NC(=O)CCl)c2C1 [Compound 145] |
| < 4.15 | Cc1cc(F)ccc1-c1cc2c(c3c1CCN(C)C3)NC(=O)/C2=N/O [Compound 52] |
| 4.22 to 4.40 | CCOc1cccc(-c2cc3c(c4c2CCN(C)C4)NC(=O)/C3=N\O)c1 [Compound 25] |
| > 5.00 | CCOc1ccccc1-c1cc2c(c3c1CCN(C)C3)NC(=O)/C2=N/O [Compound 37] |
| > 5.00 | CN1CCc2c(-c3ccccc3F)cc3c(c2C1)NC(=O)/C3=N/O [Compound 19] |
| < 4.15 | CN1CCc2c(-c3cccc(C#N)c3)cc3c(c2C1)NC(=O)/C3=N\O [Compound 28] |
| > 5.00 | CN1CCc2c(-c3ccc(F)c(F)c3)cc3c(c2C1)NC(=O)/C3=N\O [Compound 16] |
| > 5.00 | CCc1ccccc1-c1cc2c(c3c1CCN(C)C3)NC(=O)/C2=N/O [Compound 40] |
| 4.52 to 4.70 | CO/N=C1/C(=O)Nc2c1cc(-c1ccccc1OC)c1c2CN(C)CC1 [Compound 21] |
| < 4.15 | CC(=O)N1CCc2c(-c3ccc(Cl)cc3)cc3c(c2C1)NC(=O)C3=NO [Compound 70, 8-Acetyl-5-(4-chloro-phenyl)-6,7,8,9-tetrahydro-1H-pyrrolo[3,2-h]isoquinoline-2,3-dione 3-oxime] |
| > 4.70 | CN1CCc2c(-c3cccc(F)c3F)cc3c(c2C1)NC(=O)/C3=N/O [Compound 68] |
| > 5.00 | CN1CCc2c(-c3ccccc3Oc3ccccc3)cc3c(c2C1)NC(=O)/C3=N/O [Compound 44] |
| > 5.00 | CN1CCc2c(-c3cccc(Cl)c3)cc3c(c2C1)NC(=O)/C3=N\O [Compound 35] |
| > 5.00 | COc1cc(F)ccc1-c1cc2c(c3c1CCN(C)C3)NC(=O)/C2=N/O [Compound 42] |
| < 4.15 | CN1CCc2c(-c3ccc(C(=O)N(C)C)cc3)cc3c(c2C1)NC(=O)C3=NO [Compound 3, 4-(3-Hydroxyimino-8-methyl-2-oxo-2,3,6,7,8,9-hexahydro-1H-pyrrolo[3,2-h]isoquinolin-5-yl)-N,N-dimethyl-benzamide] |
| < 4.15 | CC(=O)c1cccc(-c2cc3c(c4c2CCN(C)C4)NC(=O)/C3=N/O)c1 [Compound 47] |
| 4.35 to 4.46 | CN1CCc2c(-c3ccccc3Cl)cc3c(c2C1)NC(=O)/C3=N/O [Compound 22] |
| < 4.15 | CN1CCc2c(-c3cccc(O)c3)cc3c(c2C1)NC(=O)/C3=N/O [Compound 31] |
| < 4.15 | CN1CCc2c(-c3cccc4c3oc3ccccc34)cc3c(c2C1)NC(=O)/C3=N/O [Compound 58] |
| > 5.00 | Cc1cc(-c2cc3c(c4c2CCN(C)C4)NC(=O)/C3=N/O)ccc1F [Compound 15] |
| < 4.15 | CN1CCc2c(-c3cccc(C(F)(F)F)c3)cc3c(c2C1)NC(=O)/C3=N/O [Compound 49] |
| > 5.00 | C#CN1C(=O)C(=NO)c2cc(-c3ccccc3)c3c(c21)CN(CC)CC3 [Compound 72, 8-Ethyl-1-ethynyl-5-phenyl-6,7,8,9-tetrahydro-1H-pyrrolo[3,2-h]isoquinoline-2,3-dione 3-oxime] |
| < 4.15 | CN1CCc2c(-c3ccncc3)cc3c(c2C1)NC(=O)/C3=N/O [Compound 55] |
| > 4.60 | CN1CCc2c(-c3ccc(S(=O)(=O)N4CCCCC4)cc3)cc3c(c2C1)NC(=O)C3=NO [Compound 5, 8-Methyl-5-[4-(piperidine-1-sulfonyl)-phenyl]-6,7,8,9-tetrahydro-1H-pyrrolo[3,2-h]isoquinoline-2,3-dione 3-oxime] |

| pIC50 | SMILES |
| --- | --- |
| < 4.15 | CN1CCc2c(-c3cccnc3)cc3c(c2C1)NC(=O)/C3=N/O [Compound 27] |
| < 4.15 | CN1CCc2c(-c3ccccc3S(=O)(=O)N(C)C)cc3c(c2C1)NC(=O)/C3=N\O [Compound 223] |
| < 4.15 | CN1CCc2c(-c3ccc(S(=O)(=O)N4CCOCC4)cc3)cc3c(c2C1)NC(=O)C3=NO [Compound 2, 8-methyl-5-[4-(morpholine-4-sulfonyl)-phenyl]-6,7,8,9-tetrahydro-1H-pyrrolo[3,2-h]isoquinoline-2,3-dione 3-oxime] |
| > 4.70 | CN1CCc2c(-c3ccccc3C(F)(F)F)cc3c(c2C1)NC(=O)/C3=N/O [Compound 18] |
| 4.22 to 4.40 | CC(C)Oc1cccc(-c2cc3c(c4c2CCN(C)C4)NC(=O)/C3=N\O)c1 [Compound 46] |
| < 4.15 | CC(=O)c1ccc(-c2cc3c(c4c2CCN(C)C4)NC(=O)/C3=N/O)s1 [Compound 26] |
| > 5.00 | CN1CCc2c(-c3cc(F)ccc3F)cc3c(c2C1)NC(=O)/C3=N/O [Compound 39] |
| < 4.15 | CN1CCc2c(-c3ccccc3OC(F)(F)F)cc3c(c2C1)NC(=O)/C3=N/O [Compound 53] |
| > 5.00 | COc1ncccc1-c1cc2c(c3c1CCN(C)C3)NC(=O)/C2=N/O [Compound 45] |
| < 4.15 | CN1CCc2c(-c3cccc([N+](=O)[O-])c3)cc3c(c2C1)NC(=O)/C3=N\O [Compound 29] |
| < 4.15 | CN1CCc2c(-c3ccc(OC(F)(F)F)cc3)cc3c(c2C1)NC(=O)/C3=N/O [Compound 54] |
| < 4.15 | CC(=O)c1ccccc1-c1cc2c(c3c1CCN(C)C3)NC(=O)/C2=N/O [Compound 32] |
| < 4.15 | CCOC(=O)c1ccc(-c2cc3c(c4c2CCN(C)C4)NC(=O)C3=NO)cc1 [Compound 1, 4-(3-hydroxyimino-8-methyl-2-oxo-2,3,6,7,8,9-hexahydro-1H-pyrrolo[3,2-h]isoquinolin-5-yl)-benzoic acid ethyl ester] |
| < 4.15 | CS(=O)(=O)N1CCc2c(-c3ccc(Cl)cc3)cc3c(c2C1)NC(=O)C3=NO [Compound 71, 5-(4-Chloro-phenyl)-8-methanesulfonyl-6,7,8,9-tetrahydro-1H-pyrrolo[3,2-h]isoquinoline-2,3-dione 3-oxime] |
| < 4.15 | CN1CCc2c(-c3ccc(F)cc3F)cc3c(c2C1)NC(=O)/C3=N/O [Compound 50] |
| > 5.00 | CN1CCc2c(-c3cccc(F)c3)cc3c(c2C1)NC(=O)/C3=N\O [Compound 36] |
| > 4.70 | CN1CCc2c(-c3ccoc3)cc3c(c2C1)NC(=O)/C3=N/O [Compound 69] |
| > 5.00 | COc1ccccc1-c1cc2c(c3c1CCN(C)C3)NC(=O)/C2=N\O [Compound 34] |
| > 5.00 | CN1CCc2c(-c3cc(F)cc(F)c3)cc3c(c2C1)NC(=O)/C3=N\O [Compound 17] |
| 4.22 to 4.40 | CN1CCc2c(-c3cc(C(F)(F)F)cc(C(F)(F)F)c3)cc3c(c2C1)NC(=O)/C3=N\O [Compound 23] |
| < 4.15 | CN1CCc2c(-c3ccsc3C=O)cc3c(c2C1)NC(=O)/C3=N/O [Compound 56] |
| > 5.00 | COCCOc1ccccc1-c1cc2c(c3c1CCN(C)C3)NC(=O)/C2=N/O [Compound 38] |
| > 5.00 | CN1CCc2c(-c3ccc(F)c(Cl)c3)cc3c(c2C1)NC(=O)/C3=N\O [Compound 14] |
| < 4.15 | CN1CCc2c(-c3ccc(S(=O)(=O)N4CCN(CCO)CC4)cc3)cc3c(c2C1)NC(=O)C3=NO [Compound 4, 5-{4-[4-(2-Hydroxy-ethyl)-piperazine-1-sulfonyl]-phenyl}-8-methyl-6,7,8,9-tetrahydro-1H-pyrrolo[3,2-h]isoquinoline-2,3-dione 3-oxime] |

| SMILES | pIC50 |
| --- | --- |
| CN1CCc2c(cccc2-c2ccccc2)C1 [Compound 173] | < 4.15 |
| COc1c2c(c(C(C)=O)c3c1OCO3)CCN(C)C2 [Compound 33] | < 4.15 |
